# Assay: The growth inhibitory concentration of compound was determined by logistic regression of viable cell number on Human leukemia 60 cells
# Type: functional, 60 cell
row,Structure (SMILES),GC50 [µM]
1,CC(C)OC(=O)CNC(=O)C(CSCc1ccc(Br)cc1)NC(=O)CCC(N)C(=O)OC(C)C (configuration not stated),19.6
2,CCCCCOC(=O)CNC(=O)C(CSCc1ccc(Br)cc1)NC(=O)CCC(N)C(=O)OCCCCC (configuration not stated),22.2
3,CCCCOC(=O)CNC(=O)C(CSCc1ccc(Br)cc1)NC(=O)CCC(N)C(=O)OCCCC (configuration not stated),18.5
4,NC(CCC(=O)NC(CSCc1ccc(Br)cc1)C(=O)NCC(=O)OC1CCCCC1)C(=O)OC1CCCCC1 (configuration not stated),29.2
5,NC(CCC(=O)NC(CSCc1ccc(Br)cc1)C(=O)NCC(=O)OC1CCCC1)C(=O)OC1CCCC1 (configuration not stated),4.2
6,CCCOC(=O)CNC(=O)C(CSCc1ccc(Br)cc1)NC(=O)CCC(N)C(=O)OCCC (configuration not stated),7.8
7,CCOC(=O)CNC(=O)C(CSCc1ccc(Br)cc1)NC(=O)CCC(N)C(=O)OCC (configuration not stated),8.3
